Activity calls are given as the source filed them.

For four molecules, AC50, EC50 and IC50 results are on record in ChEMBL document CHEMBL1201862, “PubChem BioAssay data set” (2004).

The nature of assay [1]: HepG2 cell cytotoxicity, dose response, cytotoxicity control for Shn3 inhibitor project, CellTiter-Glo, cherry-picked (AID 624134). It is filed as functional, cell-based. A general note: ATP-based viability assays read luminescence as a measure of living cells.
For another assay, the target named is T1, Hexokinase HKDC1 (Homo sapiens, UniProt Q2TB90).
T1 sequence (Q2TB90 whole entry): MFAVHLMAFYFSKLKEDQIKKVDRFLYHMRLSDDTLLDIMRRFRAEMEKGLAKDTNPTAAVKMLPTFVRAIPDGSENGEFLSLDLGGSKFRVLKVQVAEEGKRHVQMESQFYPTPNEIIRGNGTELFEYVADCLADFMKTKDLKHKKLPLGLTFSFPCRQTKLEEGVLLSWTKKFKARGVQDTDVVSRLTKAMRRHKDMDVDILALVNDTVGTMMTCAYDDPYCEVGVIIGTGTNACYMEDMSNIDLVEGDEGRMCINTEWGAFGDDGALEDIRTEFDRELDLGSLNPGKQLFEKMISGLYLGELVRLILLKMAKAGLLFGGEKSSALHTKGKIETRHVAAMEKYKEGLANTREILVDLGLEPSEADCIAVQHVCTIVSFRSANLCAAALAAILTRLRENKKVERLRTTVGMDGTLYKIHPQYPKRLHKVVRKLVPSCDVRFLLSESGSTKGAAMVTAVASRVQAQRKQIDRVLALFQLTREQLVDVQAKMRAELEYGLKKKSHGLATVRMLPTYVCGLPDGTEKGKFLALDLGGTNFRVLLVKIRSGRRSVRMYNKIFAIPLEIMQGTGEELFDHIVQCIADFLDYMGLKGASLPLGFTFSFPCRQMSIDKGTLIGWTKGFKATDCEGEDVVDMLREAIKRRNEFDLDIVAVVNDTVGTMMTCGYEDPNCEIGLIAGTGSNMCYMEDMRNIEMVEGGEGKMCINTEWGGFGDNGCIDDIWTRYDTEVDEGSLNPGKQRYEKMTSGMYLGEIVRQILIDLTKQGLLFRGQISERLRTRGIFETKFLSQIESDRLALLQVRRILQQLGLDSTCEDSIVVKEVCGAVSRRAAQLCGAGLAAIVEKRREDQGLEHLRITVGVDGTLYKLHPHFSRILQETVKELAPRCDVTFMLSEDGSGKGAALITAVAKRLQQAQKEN
In words: HKDC1 hexokinase activators, dose response, biochemical, W721R variant (AID 504730). It is filed as functional.

The subject of a further assay is INS1. In words: beta cell apoptosis inhibitors, cytokine rescue, dose response, luminescence, retest (AID 449756).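 Further: cell death triggered by IL-1 beta plus TNF-alpha plus IFN-gamma mixture; protective hits raise ATP signal compared with cytokine alone wells.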 In kind it is functional, cell-based. Particulars: Rattus norvegicus.
Assay [2] is described as follows: control 3'UTR Renilla luciferase suppression, dose response, counter-screen for Shn3 inhibitor project, cell-based, Clone20-Shn3RL, cherry-picked (AID 624133). It is filed as functional. (In general: The purpose of a counterscreen is to sort out artefacts and off-target activity.)
The next assay deals with T2, Hexokinase-1 (Homo sapiens, UniProt P19367).
T2 sequence (P19367 whole entry): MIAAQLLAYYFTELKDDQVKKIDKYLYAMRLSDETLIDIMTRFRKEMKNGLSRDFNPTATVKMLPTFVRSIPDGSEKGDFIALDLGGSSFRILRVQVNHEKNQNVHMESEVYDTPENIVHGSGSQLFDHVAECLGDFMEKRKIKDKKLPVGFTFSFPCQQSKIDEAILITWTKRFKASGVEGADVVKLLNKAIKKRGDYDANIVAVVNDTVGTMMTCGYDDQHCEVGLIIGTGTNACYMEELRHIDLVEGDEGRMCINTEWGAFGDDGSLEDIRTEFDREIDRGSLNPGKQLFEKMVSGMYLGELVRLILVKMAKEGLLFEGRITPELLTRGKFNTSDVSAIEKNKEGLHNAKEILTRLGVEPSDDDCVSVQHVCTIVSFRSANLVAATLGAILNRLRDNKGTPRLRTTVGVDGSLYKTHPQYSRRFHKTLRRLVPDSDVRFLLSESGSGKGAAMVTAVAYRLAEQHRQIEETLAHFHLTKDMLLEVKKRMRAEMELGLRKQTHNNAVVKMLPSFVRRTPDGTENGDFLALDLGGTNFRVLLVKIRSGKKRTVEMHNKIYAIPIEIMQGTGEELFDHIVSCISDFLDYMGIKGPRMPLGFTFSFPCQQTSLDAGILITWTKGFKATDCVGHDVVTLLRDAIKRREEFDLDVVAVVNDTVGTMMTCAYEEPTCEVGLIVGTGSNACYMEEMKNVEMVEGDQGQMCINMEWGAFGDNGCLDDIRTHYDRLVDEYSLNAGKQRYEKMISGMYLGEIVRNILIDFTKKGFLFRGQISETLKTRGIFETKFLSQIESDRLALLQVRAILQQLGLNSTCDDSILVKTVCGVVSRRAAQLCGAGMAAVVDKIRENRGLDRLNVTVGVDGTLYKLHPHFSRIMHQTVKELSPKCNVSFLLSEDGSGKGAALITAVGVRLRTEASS
Briefly: hexokinase 1 activators, dose response, selectivity assay for HKDC1 activator project, biochemical (AID 504762). In kind it is functional.

Assay [3] can be described thus: Shn3 3'UTR reporter inhibitors, dose response, cell-based, Clone20 osteoblasts, firefly luciferase, cherry-picked (AID 624132).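 Further: firefly luciferase luminescence from reporter carrying the Shn3 3'UTR in osteoblasts.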 It is filed as functional.
A further assay concerns the target T3, Coagulation factor XII (Homo sapiens, UniProt P00748).
T3 sequence (P00748 whole entry): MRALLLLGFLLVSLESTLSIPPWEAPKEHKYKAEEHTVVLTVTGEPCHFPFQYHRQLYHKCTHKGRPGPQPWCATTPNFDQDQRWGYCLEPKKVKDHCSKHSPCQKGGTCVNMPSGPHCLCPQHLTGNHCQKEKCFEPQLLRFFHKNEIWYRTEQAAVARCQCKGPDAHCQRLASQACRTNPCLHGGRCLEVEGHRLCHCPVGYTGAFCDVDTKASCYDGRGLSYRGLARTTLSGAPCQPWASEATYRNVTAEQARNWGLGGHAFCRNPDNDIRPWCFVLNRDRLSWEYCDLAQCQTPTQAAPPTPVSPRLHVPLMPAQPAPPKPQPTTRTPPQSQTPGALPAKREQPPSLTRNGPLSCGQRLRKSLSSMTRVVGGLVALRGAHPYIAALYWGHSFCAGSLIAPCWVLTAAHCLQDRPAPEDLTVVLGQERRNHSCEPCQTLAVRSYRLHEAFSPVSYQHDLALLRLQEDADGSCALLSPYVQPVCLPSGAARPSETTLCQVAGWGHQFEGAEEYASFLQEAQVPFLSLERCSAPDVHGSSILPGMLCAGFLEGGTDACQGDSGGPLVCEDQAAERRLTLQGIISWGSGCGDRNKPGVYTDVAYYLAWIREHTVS
In words: Factor XIIa Dose Response Confirmation from Single Well HTS. [Related pubchem assays (depositor defined):AID701]. It is filed as functional.

Assay [4] concerns the target T4, Zinc finger protein mex-5 (Caenorhabditis elegans, UniProt Q9XUB2).
T4 sequence (Q9XUB2 whole entry): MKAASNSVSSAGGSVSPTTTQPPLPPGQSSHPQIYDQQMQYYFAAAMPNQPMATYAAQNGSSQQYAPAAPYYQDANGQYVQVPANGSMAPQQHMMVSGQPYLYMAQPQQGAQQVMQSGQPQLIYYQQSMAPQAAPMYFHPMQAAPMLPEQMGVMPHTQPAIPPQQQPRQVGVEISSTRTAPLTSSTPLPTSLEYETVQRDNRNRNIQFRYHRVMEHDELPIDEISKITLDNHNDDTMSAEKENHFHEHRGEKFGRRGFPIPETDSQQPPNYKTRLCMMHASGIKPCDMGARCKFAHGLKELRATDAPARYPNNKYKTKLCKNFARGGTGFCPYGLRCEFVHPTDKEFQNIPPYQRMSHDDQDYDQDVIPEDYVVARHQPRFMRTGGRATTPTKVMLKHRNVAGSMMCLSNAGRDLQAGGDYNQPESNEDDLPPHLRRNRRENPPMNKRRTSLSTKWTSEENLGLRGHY
In words: MEX-5/TCR-2 RNA interaction inhibitors, dose response, biochemical, C. elegans, fluorescence polarization (AID 1960). (In general: In fluorescence polarisation assays a small probe gives low polarisation when free and higher when bound to something large.)

The target of assay [5] is T5, RNA-binding protein pos-1 (Caenorhabditis elegans, UniProt G5EF15).
T5 sequence (G5EF15 whole entry): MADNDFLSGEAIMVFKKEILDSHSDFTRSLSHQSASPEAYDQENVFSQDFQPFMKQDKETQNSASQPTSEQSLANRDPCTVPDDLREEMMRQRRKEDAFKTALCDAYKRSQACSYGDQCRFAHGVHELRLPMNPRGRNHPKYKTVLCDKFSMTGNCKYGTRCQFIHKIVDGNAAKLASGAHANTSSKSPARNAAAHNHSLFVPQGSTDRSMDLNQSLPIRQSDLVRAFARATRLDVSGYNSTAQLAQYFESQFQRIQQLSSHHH
In words: inhibitors of POS-1/mex-3 RNA binding, dose response, biochemical, fluorescence polarization (AID 1964).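 Further: purified POS-1 fused to maltose binding protein made in E. coli; potency of compounds blocking POS-1 binding to fluorescent RNA.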

In assay [6] the target is T6, Runt-related transcription factor 1/Core-binding factor subunit beta (Homo sapiens, UniProt Q01196+Q13951). In words: inhibitors of RUNX1 Runt–CBFb-SMMHC binding, biochemical, TR-FRET (AID 1438). In kind it is protein assay.
Assay [7] deals with T6, Runt-related transcription factor 1/Core-binding factor subunit beta. In words: inhibitors of RUNX1 Runt–CBFb-SMMHC binding, primary screen, biochemical, FRET, Cerulean-Runt, Venus-CBFb-SMMHC, uHTS (AID 1434).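 Further: partner is the CBFb-SMMHC leukemia fusion protein rather than wild-type CBFb.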 It is filed as protein assay.
In assay [8] the target is T7, Apoptotic protease-activating factor 1 (Homo sapiens, UniProt O14727).
T7 sequence (O14727 whole entry): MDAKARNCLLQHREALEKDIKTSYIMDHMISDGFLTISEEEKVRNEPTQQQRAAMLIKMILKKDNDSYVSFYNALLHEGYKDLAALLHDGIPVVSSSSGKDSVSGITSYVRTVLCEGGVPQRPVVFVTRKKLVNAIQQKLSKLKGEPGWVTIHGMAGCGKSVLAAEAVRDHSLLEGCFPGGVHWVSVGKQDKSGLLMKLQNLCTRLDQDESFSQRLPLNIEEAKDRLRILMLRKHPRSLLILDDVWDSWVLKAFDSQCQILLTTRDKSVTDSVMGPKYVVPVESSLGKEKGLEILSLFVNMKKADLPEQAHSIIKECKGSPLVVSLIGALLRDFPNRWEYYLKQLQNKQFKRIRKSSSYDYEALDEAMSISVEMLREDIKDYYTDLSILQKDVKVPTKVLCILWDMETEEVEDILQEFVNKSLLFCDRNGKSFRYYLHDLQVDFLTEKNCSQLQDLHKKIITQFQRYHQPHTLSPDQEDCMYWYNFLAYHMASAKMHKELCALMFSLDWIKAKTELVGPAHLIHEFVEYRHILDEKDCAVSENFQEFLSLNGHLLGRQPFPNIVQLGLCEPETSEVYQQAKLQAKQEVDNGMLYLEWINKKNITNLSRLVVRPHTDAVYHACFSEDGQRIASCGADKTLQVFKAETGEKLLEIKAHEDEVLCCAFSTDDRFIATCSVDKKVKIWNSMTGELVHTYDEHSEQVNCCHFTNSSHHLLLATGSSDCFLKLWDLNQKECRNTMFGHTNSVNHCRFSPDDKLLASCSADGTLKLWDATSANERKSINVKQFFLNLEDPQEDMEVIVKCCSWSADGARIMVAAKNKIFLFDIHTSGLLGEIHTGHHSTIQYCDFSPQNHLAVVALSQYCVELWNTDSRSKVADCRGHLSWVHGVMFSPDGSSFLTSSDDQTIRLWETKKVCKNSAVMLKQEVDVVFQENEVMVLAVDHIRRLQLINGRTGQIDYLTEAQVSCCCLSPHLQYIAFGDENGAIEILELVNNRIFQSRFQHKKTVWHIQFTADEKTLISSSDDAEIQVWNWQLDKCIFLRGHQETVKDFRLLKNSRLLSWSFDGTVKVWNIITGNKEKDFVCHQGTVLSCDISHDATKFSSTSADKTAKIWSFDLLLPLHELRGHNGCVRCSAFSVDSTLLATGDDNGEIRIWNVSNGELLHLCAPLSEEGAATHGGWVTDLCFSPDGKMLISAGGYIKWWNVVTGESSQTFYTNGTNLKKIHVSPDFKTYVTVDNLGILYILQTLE
It is filed as functional.

T6 sequence (Q01196 whole entry, the tested form may be a part): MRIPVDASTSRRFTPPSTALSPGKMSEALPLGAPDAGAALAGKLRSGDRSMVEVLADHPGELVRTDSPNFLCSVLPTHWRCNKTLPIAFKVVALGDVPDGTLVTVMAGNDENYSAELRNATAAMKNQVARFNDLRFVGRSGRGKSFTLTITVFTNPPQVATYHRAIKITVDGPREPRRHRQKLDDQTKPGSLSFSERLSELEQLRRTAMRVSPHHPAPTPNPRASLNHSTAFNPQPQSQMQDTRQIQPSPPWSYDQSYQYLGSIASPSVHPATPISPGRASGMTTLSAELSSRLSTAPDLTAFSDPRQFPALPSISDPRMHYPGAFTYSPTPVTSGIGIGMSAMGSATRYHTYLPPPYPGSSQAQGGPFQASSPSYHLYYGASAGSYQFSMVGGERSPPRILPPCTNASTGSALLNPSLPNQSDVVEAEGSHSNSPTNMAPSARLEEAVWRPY
T6 sequence (Q13951 whole entry, the tested form may be a part): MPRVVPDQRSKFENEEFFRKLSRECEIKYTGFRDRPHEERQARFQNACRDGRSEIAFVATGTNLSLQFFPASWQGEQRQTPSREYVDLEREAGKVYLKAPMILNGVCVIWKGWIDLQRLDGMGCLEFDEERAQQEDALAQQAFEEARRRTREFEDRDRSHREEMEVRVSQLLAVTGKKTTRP

On to `C=CCn1nc([N+](=O)[O-])nc1Sc1cccc2cccnc12`, for which the AC50 in assay [1] is 30.3 µM (active); in the assay on INS1, 1.24 µM (active); in [2], 7.05 µM (active); in assay [3] it was 10.7 µM (active). The EC50 at Hexokinase HKDC1 and at Hexokinase-1 was > 80 µM (inactive) throughout.

For `Cc1ccc(-c2n[nH]c(=O)c3ccccc23)cc1S(=O)(=O)NCCO`, the IC50 on Coagulation factor XII was > 50 µM (inactive).

Regarding `Oc1ccc(-c2cnns2)c(O)c1`, the EC50 in assay [4] is 10.4 µM (active); in assay [5], 45.5 µM (active). The half-inhibitory concentration (IC50) was 19.9 µM (active) in assay [6] and 31.5 µM (active) in [7].

For `COCCCNC(=O)c1c(NC(=O)c2ccco2)n(Cc2ccccc2)c2nc3ccccc3nc12`, the results for the IC50 in assay [8], in assay [6] and in [7] were > 100 µM (inactive), 16 µM (active) and 0.34 µM (active), respectively.

As a reminder, the AC50 is the midpoint of the concentration-response curve, whichever way the signal moves. A word on the EC50: it is the concentration needed to bring the measured effect to its halfway point. What is called IC50 is the midpoint of a concentration-inhibition curve.
